Source: patent US20200368364A1, “CYSTEINE PEPTIDE-ENABLED ANTIBODIES” (City of Hope, priority 2016, published 2020)

Tests used:
[1] = system: cetuximab or the meditope-enabled trastuzumab; assay: Lifetime of the meditope-Fab interaction; format: binding; conditions: 37° C.
Text: Since the cyclic, twelve residue peptide binds in a hole that runs through the middle of the Fab arm, Applicants have named it a meditope. Antigen binding is not altered after grafting or in the presence of the meditope^14-15. As such, Applicants understood that they could use the meditope interaction as a hitch for the delivery of cytotoxins, imaging agents, or biologics. […] Applicants further improved the lifetime by creating a mechanical bond by modifying the arginine at position 8 with an azide, threading it through the Fab hole, and using click chemistry to sterically block its dissociation. While the lifetime of this mechanically interlocked Fab complex is difficult to ascertain, Applicants were capable of imaging tumors in animal xenografts.

[2] = system: mutated I83 trastuzumab memAb (I83 mutated to glutamate); assay: SPR of meditope peptide variants binding to immobilized memAb variant; conditions: SPR at 37° C.; original meditope; vs original trastuzumab memAb
Experimental: FIG. 3A-3H. […] FIG. 3E-H) SPR sensograms collected at 37° C.

SKBR3 cells = assay: Cell viability (CellTiter-Glo) for DM1 and MMAE conjugates; format: cell-based; conditions: 72 h, read-out: EC50 (cell viability / lysis)

Row | Substance | lifetime of the meditope peptide on the Fab [1] | increase in affinity with I83 mutated to glutamate [2] | EC50 (SKBR3 cells)
1 | Ac-CQFDLSTRRLKC-Am (Ac-CQFDLSTRRLKC-NH2; not fully specified (bridges); printed as Ac-CQFDLSTRRLKC-Am; also: cyclic, kind not given here) [original meditope, serine at position 6] | seconds | ~25 | 
2 | trastuzumab emtansine [clinical DM1] |  |  | 0.093 nM
